Experimental data published in US8999940B2 (Ipsen Pharma S.A.S., priority 2008, dated 2015).
Where no end group is shown, it is not given here. [ ]: non-standard residue; d: D form. The star is where a group is joined. Desaminotyrosyl = O=C(CCc1ccc(O)cc1)*; Pip = O=C(O)[C@@H]1CCCCN1; Ac6c = NC1(C(=O)O)CCCCC1

Experiments:
[1] = Human plasma half-life assay; type: in vitro ADME; conditions: 37° C., LC-MS, read-out: Human Plasma T½ (converted)
[2] = target: T1, human recombinant GIP receptor (Homo sapiens, UniProt P48546); assay: In vitro hGIP receptor binding assay
T1 construct: expressed in transfected cells; host or cells: CHO-K1 clonal cells (membrane preparation)
T1 sequence (P48546 22-466): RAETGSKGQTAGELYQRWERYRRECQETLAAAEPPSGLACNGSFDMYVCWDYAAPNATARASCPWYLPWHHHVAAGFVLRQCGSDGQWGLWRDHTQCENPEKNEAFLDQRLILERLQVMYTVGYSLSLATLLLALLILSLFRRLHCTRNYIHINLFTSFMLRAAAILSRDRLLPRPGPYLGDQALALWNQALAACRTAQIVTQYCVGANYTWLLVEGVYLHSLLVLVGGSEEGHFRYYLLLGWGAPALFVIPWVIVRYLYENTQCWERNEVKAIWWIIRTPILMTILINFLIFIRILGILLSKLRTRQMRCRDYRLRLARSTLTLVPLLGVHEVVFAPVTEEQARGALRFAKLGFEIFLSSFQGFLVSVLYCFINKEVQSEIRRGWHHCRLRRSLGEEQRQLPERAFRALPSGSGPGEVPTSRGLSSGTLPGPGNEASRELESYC
Description: A. In Vitro hGIP Receptor Binding Assay […] The incubations were terminated by rapid filtration through GF/C filters (pre-soaked in 0.5% polyethylenimine) using a Brandel filtration manifold. Each tube and filter were then washed three times with 5-ml aliquots of ice-cold buffer.

[3] = Rat plasma half-life assay; type: in vitro ADME; conditions: 37° C., LC-MS, read-out: Rat Plasma T½ (converted)

Row | Molecule | half-life at 0.1 mg/ml [1] [h] | Ki [2] [nM] | half-life at 0.1 mg/ml [3] [h]
1 | CC[C@H](C)[C@H](NC(=O)[C@H](CCCCN)NC(=O)[C@H](CC(=O)O)NC(=O)[C@H](CCSC)NC(=O)[C@H](C)NC(=O)[C@@H](NC(=O)C1(NC(=O)[C@H](Cc2ccc(O)cc2)NC(=O)[C@H](CC(=O)O)NC(=O)[C@H](CO)NC(=O)[C@@H](NC(=O)[C@H](Cc2ccccc2)NC(=O)[C@@H](NC(=O)CNC(=O)[C@H](CCC(=O)O)NC(=O)C(C)(C)NC(=O)[C@@H](N)Cc2cccc(F)c2)[C@@H](C)O)[C@@H](C)CC)CCCC1)[C@@H](C)CC)C(=O)N[C@@H](Cc1c[nH]cn1)C(=O)N[C@@H](CCC(N)=O)C(=O)N[C@@H](CCC(N)=O)C(=O)N[C@@H](CC(=O)O)C(=O)N[C@@H](Cc1ccccc1)C(=O)N[C@H](C(=O)N[C@@H](CC(N)=O)C(=O)N[C@@H](Cc1c[nH]c2ccccc12)C(=O)N[C@@H](CC(C)C)C(=O)N[C@@H](CC(C)C)C(=O)N[C@@H](C)C(=O)N[C@@H](CCC(N)=O)C(=O)N[C@@H](CCCCN)C(=O)NCC(=O)N[C@@H](CCCCN)C(=O)N[C@@H](CCCCN)C(=O)N[C@@H](CC(N)=O)C(=O)N[C@@H](CC(=O)O)C(=O)N[C@@H](Cc1c[nH]c2ccccc12)C(=O)N[C@@H](CCCCN)C(=O)N[C@@H](Cc1c[nH]cn1)C(=O)N[C@@H](CC(N)=O)C(=O)N[C@H](C(=O)NC1(C(=O)N[C@@H](CCC(N)=O)C(=O)O)CCCC1)[C@@H](C)CC)C(C)C [Example 41, (3F-Phe^1, Aib^2, A5c^11, 41)hGIP(1-42)-OH] | 63.6 | 5.43 | > 66
2 | CCCC[C@H](NC(=O)[C@H](C)NC(=O)[C@@H](NC(=O)C1(NC(=O)[C@H](Cc2ccc(O)cc2)NC(=O)[C@H](CC(=O)O)NC(=O)[C@H](CO)NC(=O)[C@@H](NC(=O)[C@H](Cc2ccccc2)NC(=O)[C@@H](NC(=O)CNC(=O)[C@H](CCC(=O)O)NC(=O)C(C)(C)NC(=O)[C@@H](N)Cc2cc(F)cc(F)c2)[C@@H](C)O)[C@@H](C)CC)CCCC1)[C@@H](C)CC)C(=O)N[C@@H](CC(=O)O)C(=O)N[C@@H](CCCCN)C(=O)N[C@H](C(=O)N[C@@H](Cc1c[nH]cn1)C(=O)N[C@@H](CCC(N)=O)C(=O)N[C@@H](CCC(N)=O)C(=O)N[C@@H](CC(=O)O)C(=O)N[C@@H](Cc1ccccc1)C(=O)N[C@H](C(=O)N[C@@H](CC(N)=O)C(=O)N[C@@H](Cc1c[nH]c2ccccc12)C(=O)N[C@@H](CC(C)C)C(=O)N[C@@H](CC(C)C)C(=O)N[C@@H](C)C(=O)N[C@@H](CCC(N)=O)C(=O)N[C@@H](CCCCN)C(=O)NCC(=O)N[C@@H](CCCCN)C(=O)N[C@@H](CCCCN)C(=O)N[C@@H](CC(N)=O)C(=O)N[C@@H](CC(=O)O)C(=O)N[C@@H](Cc1c[nH]c2ccccc12)C(=O)N[C@@H](CCCCN)C(=O)N[C@@H](Cc1c[nH]cn1)C(=O)N[C@@H](CC(N)=O)C(=O)N[C@H](C(=O)N[C@H](C(=O)N[C@@H](CCC(N)=O)C(=O)O)[C@@H](C)O)[C@@H](C)CC)C(C)C)[C@@H](C)CC [Example 25, (3,5F-Phe^1, Aib^2, A5c^11, Nle^14)hGIP(1-42)-OH] | > 74 | 26 | > 74
3 | CC[C@H](C)[C@H](NC(=O)[C@H](CCCCN)NC(=O)[C@H](CC(=O)O)NC(=O)[C@H](CCSC)NC(=O)[C@H](C)NC(=O)[C@@H](NC(=O)C1(NC(=O)[C@H](Cc2ccc(O)cc2)NC(=O)[C@H](CC(=O)O)NC(=O)[C@H](CO)NC(=O)[C@@H](NC(=O)[C@H](Cc2ccccc2)NC(=O)[C@@H](NC(=O)CNC(=O)[C@H](CCC(=O)O)NC(=O)C(C)(C)NC(=O)[C@@H](N)Cc2ccc(O)c(OC)c2)[C@@H](C)O)[C@@H](C)CC)CCCC1)[C@@H](C)CC)C(=O)N[C@@H](Cc1c[nH]cn1)C(=O)N[C@@H](CCC(N)=O)C(=O)N[C@@H](CCC(N)=O)C(=O)N[C@@H](CC(=O)O)C(=O)N[C@@H](Cc1ccccc1)C(=O)N[C@H](C(=O)N[C@@H](CC(N)=O)C(=O)N[C@@H](Cc1c[nH]c2ccccc12)C(=O)N[C@@H](CC(C)C)C(=O)N[C@@H](CC(C)C)C(=O)N[C@@H](C)C(=O)N[C@@H](CCC(N)=O)C(=O)N[C@@H](CCCCN)C(=O)NCC(=O)N[C@@H](CCCCN)C(=O)N[C@@H](CCCCN)C(=O)N[C@@H](CC(N)=O)C(=O)N[C@@H](CC(=O)O)C(=O)N[C@@H](Cc1c[nH]c2ccccc12)C(=O)N[C@@H](CCCCN)C(=O)N[C@@H](Cc1c[nH]cn1)C(=O)N[C@@H](CC(N)=O)C(=O)N[C@H](C(=O)N[C@H](C(=O)N[C@@H](CCC(N)=O)C(=O)N[C@@H](Cc1c[nH]cn1)C(=O)O)[C@@H](C)O)[C@@H](C)CC)C(C)C [Example 73, (3MeO-Tyr^1, Aib^2, A5c^11, His^43)hGIP(1-43)-OH] | 28.6 | 3.9 | 11.8
4 | CC[C@H](C)[C@H](NC(=O)[C@H](CCCCN)NC(=O)[C@H](CC(=O)O)NC(=O)[C@H](CCSC)NC(=O)[C@H](C)NC(=O)[C@@H](NC(=O)C1(NC(=O)[C@H](Cc2ccc(O)cc2)NC(=O)[C@H](CC(=O)O)NC(=O)[C@H](CO)NC(=O)[C@@H](NC(=O)[C@H](Cc2ccccc2)NC(=O)[C@@H](NC(=O)CNC(=O)[C@H](CCC(=O)O)NC(=O)C(C)(C)NC(=O)[C@@H](N)Cc2ccncc2)[C@@H](C)O)[C@@H](C)CC)CCCC1)[C@@H](C)CC)C(=O)N[C@@H](Cc1c[nH]cn1)C(=O)N[C@@H](CCC(N)=O)C(=O)N[C@@H](CCC(N)=O)C(=O)N[C@@H](CC(=O)O)C(=O)N[C@@H](Cc1ccccc1)C(=O)N[C@H](C(=O)N[C@@H](CC(N)=O)C(=O)N[C@@H](Cc1c[nH]c2ccccc12)C(=O)N[C@@H](CC(C)C)C(=O)N[C@@H](CC(C)C)C(=O)N[C@@H](C)C(=O)N[C@@H](CCC(N)=O)C(=O)N[C@@H](CCCCN)C(=O)NCC(=O)N[C@@H](CCCCN)C(=O)N[C@@H](CCCCN)C(=O)N[C@@H](CC(N)=O)C(=O)N[C@@H](CC(=O)O)C(=O)N[C@@H](Cc1c[nH]c2ccccc12)C(=O)N[C@@H](CCCCN)C(=O)N[C@@H](Cc1c[nH]cn1)C(=O)N[C@@H](CC(N)=O)C(=O)N[C@H](C(=O)NC1(C(=O)N[C@@H](CCC(N)=O)C(=O)O)CCCC1)[C@@H](C)CC)C(C)C [Example 33, (4-Pal^1, Aib^2, A5c^11, 41)hGIP(1-42)-OH] | 32.8 | 8.14 | 15.5
5 | Desaminotyrosyl-A[Pip]GTF[Ac6c]SDYSIAMDKIHQQDFVNWLLAQKGKKNDWKHNITQ [Example 8, (4Hppa^1, hPro^3, A6c^7)hGIP(1-42)-OH] | > 53 | 707 | 12.9
